Experiments:
[1] = biological target: T1, ITK (Homo sapiens, UniProt Q08881); experiment: Inhibition of a panel of kinases, in vitro HotSpot kinase assay: ITK; format: biochemical; conditions: D-compounds panel data; 1 μM ATP
T1 sequence (Q08881 1-620): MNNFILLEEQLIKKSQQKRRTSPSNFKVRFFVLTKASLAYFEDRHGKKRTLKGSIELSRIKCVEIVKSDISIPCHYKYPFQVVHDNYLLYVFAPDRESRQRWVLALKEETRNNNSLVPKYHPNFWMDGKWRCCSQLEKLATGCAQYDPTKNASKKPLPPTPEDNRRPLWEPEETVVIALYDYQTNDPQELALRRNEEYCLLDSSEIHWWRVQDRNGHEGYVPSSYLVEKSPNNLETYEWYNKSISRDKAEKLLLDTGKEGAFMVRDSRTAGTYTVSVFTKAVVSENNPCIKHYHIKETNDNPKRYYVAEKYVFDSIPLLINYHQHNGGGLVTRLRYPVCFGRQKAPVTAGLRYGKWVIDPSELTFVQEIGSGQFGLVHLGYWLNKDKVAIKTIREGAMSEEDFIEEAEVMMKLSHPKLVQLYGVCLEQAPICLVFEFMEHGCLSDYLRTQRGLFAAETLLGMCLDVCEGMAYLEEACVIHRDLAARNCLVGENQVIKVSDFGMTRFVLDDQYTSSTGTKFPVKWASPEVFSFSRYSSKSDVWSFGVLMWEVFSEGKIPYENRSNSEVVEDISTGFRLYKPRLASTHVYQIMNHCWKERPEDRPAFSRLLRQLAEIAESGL
Protocol: (§1) The degree of inhibition of a panel of kinases is determined using the in vitro HotSpot kinase assay (purified enzymes, ^33P-ATP, an appropriate substrate and 1 μM ATP).

[2] = biological target: T2, TEC (Homo sapiens, UniProt P42680); experiment: Inhibition of a panel of kinases, in vitro HotSpot kinase assay: TEC; format: biochemical; conditions: D-compounds panel data; 1 μM ATP
T2 sequence (P42680 1-631): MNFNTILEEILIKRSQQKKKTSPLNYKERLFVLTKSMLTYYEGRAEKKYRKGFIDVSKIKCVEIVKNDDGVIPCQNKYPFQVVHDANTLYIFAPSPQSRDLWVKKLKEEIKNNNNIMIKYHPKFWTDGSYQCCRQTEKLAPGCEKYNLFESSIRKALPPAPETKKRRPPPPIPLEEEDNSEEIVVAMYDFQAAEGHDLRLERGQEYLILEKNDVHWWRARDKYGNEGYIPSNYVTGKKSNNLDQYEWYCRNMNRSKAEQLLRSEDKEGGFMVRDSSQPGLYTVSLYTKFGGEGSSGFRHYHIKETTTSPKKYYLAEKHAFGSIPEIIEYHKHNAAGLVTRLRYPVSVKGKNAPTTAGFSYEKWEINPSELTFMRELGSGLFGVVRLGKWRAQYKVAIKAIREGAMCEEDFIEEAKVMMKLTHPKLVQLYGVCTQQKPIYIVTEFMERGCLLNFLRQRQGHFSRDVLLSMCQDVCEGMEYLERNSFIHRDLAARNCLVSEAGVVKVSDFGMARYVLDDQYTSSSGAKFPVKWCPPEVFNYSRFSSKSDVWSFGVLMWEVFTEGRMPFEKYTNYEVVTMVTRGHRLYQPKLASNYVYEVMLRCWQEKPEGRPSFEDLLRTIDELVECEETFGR
Protocol: as §1

SMILES	IC50 [1] [nM]	IC50 [2] [nM]
C[C@@H]1[C@H](NC(=O)N(C)C)CCCN1c1cnc(C(N)=O)c(Nc2cc(C3CCN(C4CCCC4)CC3)ns2)n1 [Example D-163, 3-{[3-(1-cyclopentylpiperidin-4-yl)-1,2-thiazol-5-yl]amino}-5-[(2R,3R)-3-[(dimethylcarbamoyl)amino]-2-methylpiperidin-1-yl]pyrazine-2-carboxamide]	10 to 100	10 to 100
Cc1cc(Nc2cc(N3CCC[C@@H](NC(=O)c4ccc(C5CC5)cc4F)[C@H]3C)cnc2C(N)=O)sn1 [Example D-116, 5-[(2R,3R)-3-(4-cyclopropyl-2-fluorobenzamido)-2-methylpiperidin-1-yl]-3-[(3-methyl-1,2-thiazol-5-yl)amino]pyridine-2-carboxamide]	1000 to 10000	100 to 1000
C[C@@H]1[C@H](NC(=O)c2ccc(C3CC3)cc2F)CCCN1c1cnc(C(N)=O)c(Nc2ccc(CN3CCN(C)CC3)cc2)c1 [Example D-125, 5-[(2R,3R)-3-(4-cyclopropyl-2-fluorobenzamido)-2-methylpiperidin-1-yl]-3-({4-[(4-methylpiperazin-1-yl)methyl]phenyl}amino)pyridine-2-carboxamide]	1000 to 10000	1000 to 10000
C[C@@H]1[C@H](NC(=O)c2ccc(C3CC3)cc2)CCCN1c1cnc(C(N)=O)c(Nc2ccc(OC3C[C@H]4CC[C@@H](C3)N4C)cc2)n1 (stereo partly drawn) [Example D-106, 5-[(2R,3R)-3-(4-cyclopropylbenzamido)-2-methylpiperidin-1-yl]-3-[(4-{[(1R,5S)-8-methyl-8-azabicyclo[3.2.1]octan-3-yl]oxy}phenyl)amino]pyrazine-2-carboxamide]	10 to 100	≤ 10
C[C@@H]1[C@H](NC(=O)c2ccc(C3CC3)cc2)CCCN1c1cnc(C(N)=O)c(Nc2ccc(N3CCN(C)CC3)c(F)c2)n1 [Example D-146, 5-[(2R,3R)-3-(4-cyclopropylbenzamido)-2-methylpiperidin-1-yl]-3-{[3-fluoro-4-(4-methylpiperazin-1-yl)phenyl]amino}pyrazine-2-carboxamide]	10 to 100	10 to 100
C[C@@H]1[C@H](NC(=O)c2ccc(C(F)(F)F)cc2)CCCN1c1cnc(C(N)=O)c(Nc2ccc(N3CCN(C)CC3)cc2)n1 [Example D-11, 5-[(2R,3R)-2-methyl-3-[4-(trifluoromethyl)benzamido]piperidin-1-yl]-3-{[4-(4-methylpiperazin-1-yl)phenyl]amino}pyrazine-2-carboxamide]	100 to 1000	10 to 100
CC(C)N1CCN(c2ccc(Nc3nc(N4CCC[C@@H](NC(=O)c5ccc(C6CC6)cc5F)[C@H]4C)cnc3C(N)=O)cc2)CC1 [Example D-7, 5-[(2R,3R)-3-(4-cyclopropyl-2-fluorobenzamido)-2-methylpiperidin-1-yl]-3-({4-[4-(propan-2-yl)piperazin-1-yl]phenyl}amino)pyrazine-2-carboxamide]	10 to 100	10 to 100
C[C@@H]1CC[C@H](NC(=O)c2ccc(C3CC3)cc2)CN1c1cnc(C(N)=O)c(Nc2ccc(N3CCN(C)CC3)cc2)n1 [Example D-153, 5-[(2R,5S)-5-(4-cyclopropylbenzamido)-2-methylpiperidin-1-yl]-3-{[4-(4-methylpiperazin-1-yl)phenyl]amino}pyrazine-2-carboxamide]	10 to 100	≤ 10
C[C@@H]1[C@H](NC(=O)c2ccc(C3CC3)cc2F)CCCN1c1cnc(C(N)=O)c(Nc2ccc(N3CCN(C4CCCC4)CC3)cc2)n1 [Example D-5, 3-{[4-(4-cyclopentylpiperazin-1-yl)phenyl]amino}-5-[(2R,3R)-3-(4-cyclopropyl-2-fluorobenzamido)-2-methylpiperidin-1-yl]pyrazine-2-carboxamide]	100 to 1000	10 to 100
C[C@@H]1[C@H](NC(=O)c2ccc(C3CC3)cc2)CCCN1c1cnc(C(N)=O)c(Nc2ccc(OC3CCCN(C)C3)cc2)n1 (stereo partly drawn) [Example D-105, 5-[(2R,3R)-3-(4-cyclopropylbenzamido)-2-methylpiperidin-1-yl]-3-({4-[(1-methylpiperidin-3-yl)oxy]phenyl}amino)pyrazine-2-carboxamide]	10 to 100	≤ 10

Next, values leading:

IC50 [1] [nM]	IC50 [2] [nM]	SMILES
100 to 1000	10 to 100	CNC(=O)N[C@@H]1CCCN(c2cnc(C(N)=O)c(Nc3cnn(C)c3)n2)[C@@H]1C [Example D-109, 3-[(1-methyl-1H-pyrazol-4-yl)amino]-5-[(2R,3R)-2-methyl-3-[(methylcarbamoyl)amino]piperidin-1-yl]pyrazine-2-carboxamide]
100 to 1000	10 to 100	CN1CCN(c2ccc(Nc3nc(N4CCC[C@@H](n5ccc6cc(C7CC7)ccc6c5=O)C4)cnc3C(N)=O)cc2)CC1 [Example D-165, 5-[(3R)-3-(6-cyclopropyl-1-oxo-1,2-dihydroisoquinolin-2-yl)piperidin-1-yl]-3-{[4-(4-methylpiperazin-1-yl)phenyl]amino}pyrazine-2-carboxamide]
100 to 1000	100 to 1000	C[C@@H]1[C@H](NC(=O)c2ccc(C3CC3)cc2F)CCCN1c1cnc(C(N)=O)c(Nc2ccc(S(C)(=O)=O)cc2)n1 [Example D-133, 5-[(2R,3R)-3-(4-cyclopropyl-2-fluorobenzamido)-2-methylpiperidin-1-yl]-3-[(4-methanesulfonylphenyl)amino]pyrazine-2-carboxamide]
100 to 1000	10 to 100	C[C@@H]1[C@H](NC(=O)c2ccc(C3CC3)cc2)CCCN1c1cnc(C(N)=O)c(Nc2cnn(C)c2)n1 [Example D-135, 5-[(2R,3R)-3-(4-cyclopropylbenzamido)-2-methylpiperidin-1-yl]-3-[(1-methyl-1H-pyrazol-4-yl)amino]pyrazine-2-carboxamide]
> 10000	1000 to 10000	C[C@H]1CC[C@H](NC(=O)c2ccc(C3CC3)cc2)CN1c1cnc(C(N)=O)c(Nc2cnn(C)c2)n1 [Example D-144, 5-[(2S,5S)-5-(4-cyclopropylbenzamido)-2-methylpiperidin-1-yl]-3-[(1-methyl-1H-pyrazol-4-yl)amino]pyrazine-2-carboxamide]
> 10000	10 to 100	C[C@@H]1[C@H](NC(=O)c2ccc(C3CC3)cc2F)CCCN1c1cnc(C(N)=O)c(Nc2ccc3ncccc3c2)n1 [Example D-114, 5-[(2R,3R)-3-(4-cyclopropyl-2-fluorobenzamido)-2-methylpiperidin-1-yl]-3-[(quinolin-6-yl)amino]pyrazine-2-carboxamide]
1000 to 10000	100 to 1000	Cc1cccc(-c2cnc(C3CCCN(c4cnc(C(N)=O)c(Nc5cnn(C)c5)n4)C3)[nH]2)c1 [Example D-148, 3-[(1-methyl-1H-pyrazol-4-yl)amino]-5-{3-[5-(3-methylphenyl)-1H-imidazol-2-yl]piperidin-1-yl}pyrazine-2-carboxamide]
100 to 1000	10 to 100	C[C@@H]1[C@H](NC(=O)c2ccc(OC(F)(F)F)cc2)CCCN1c1cnc(C(N)=O)c(Nc2cnn(C)c2)n1 [Example D-95, 3-[(1-methyl-1H-pyrazol-4-yl)amino]-5-[(2R,3R)-2-methyl-3-[4-(trifluoromethoxy)benzamido]piperidin-1-yl]pyrazine-2-carboxamide]
> 10000	1000 to 10000	C[C@@H]1[C@H](NC(=O)c2ccc(C3CC3)cc2F)CCCN1c1cnc(C(N)=O)c(Nc2ccc3cccnc3c2)n1 [Example D-124, 5-[(2R,3R)-3-(4-cyclopropyl-2-fluorobenzamido)-2-methylpiperidin-1-yl]-3-[(quinolin-7-yl)amino]pyrazine-2-carboxamide]
100 to 1000	10 to 100	C[C@@H]1[C@H](NC(=O)c2ccc(C(C)(C)N(C)C)cc2)CCCN1c1cnc(C(N)=O)c(Nc2cnn(C)c2)n1 [Example D-108, 5-[(2R,3R)-3-{4-[2-(dimethylamino)propan-2-yl]benzamido}-2-methylpiperidin-1-yl]-3-[(1-methyl-1H-pyrazol-4-yl)amino]pyrazine-2-carboxamide]
100 to 1000	10 to 100	CN1CCN(Cc2ccc(Nc3nc(N4CCC[C@@H](n5ccc6cc(C7CC7)ccc6c5=O)C4)cnc3C(N)=O)cc2)CC1 [Example D-167, 5-[(3R)-3-(6-cyclopropyl-1-oxo-1,2-dihydroisoquinolin-2-yl)piperidin-1-yl]-3-({4-[(4-methylpiperazin-1-yl)methyl]phenyl}amino)pyrazine-2-carboxamide]

— patent US20210070748A1, “INHIBITORS OF BRUTONS TYROSINE KINASE” (Pharmacyclics LLC, priority 2015, published 2021)
